Experimental findings from ChEMBL document CHEMBL3867469, “Discovery of phenoxyindazoles and phenylthioindazoles as RORγ inverse agonists” (Bioorg Med Chem Lett, 2016) are described below.

Data set [1] can be described thus: Photocytotoxicity against human neonatal keratinocytes assessed as decrease in cell viability preincubated for 30 mins followed by 5 J/cm2 UV light irradiation for 15 mins measured after 24 hrs by neutral red dye based assay. Format: toxicity. As to conditions: neonatal keratinocyte.
Data set [2] has as its target T1, Nuclear receptor ROR-gamma (Homo sapiens, UniProt P51449).
T1 sequence (P51449 whole entry): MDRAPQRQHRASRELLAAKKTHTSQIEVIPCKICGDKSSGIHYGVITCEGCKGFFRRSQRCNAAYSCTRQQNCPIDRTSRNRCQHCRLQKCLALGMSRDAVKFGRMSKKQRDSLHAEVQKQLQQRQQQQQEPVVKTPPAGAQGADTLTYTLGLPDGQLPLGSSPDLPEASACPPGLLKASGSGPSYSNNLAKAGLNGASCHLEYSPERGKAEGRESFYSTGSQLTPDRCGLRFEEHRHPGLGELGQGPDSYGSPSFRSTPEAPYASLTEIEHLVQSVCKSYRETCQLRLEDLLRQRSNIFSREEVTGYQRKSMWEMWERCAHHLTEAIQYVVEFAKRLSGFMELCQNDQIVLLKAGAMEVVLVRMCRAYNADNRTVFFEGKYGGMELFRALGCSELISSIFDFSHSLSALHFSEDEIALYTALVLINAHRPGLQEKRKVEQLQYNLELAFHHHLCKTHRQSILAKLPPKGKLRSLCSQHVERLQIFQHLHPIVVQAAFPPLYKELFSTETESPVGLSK
Description: Inverse agonist activity at GAL4 DBD-fused RORgammat LBD (unknown origin) expressed in HG5LN cells after 18 hrs by luciferase reporter gene assay

Data set [3] has as its target T2, Retinoic acid receptor gamma (Homo sapiens, UniProt P13631).
T2 sequence (P13631 whole entry): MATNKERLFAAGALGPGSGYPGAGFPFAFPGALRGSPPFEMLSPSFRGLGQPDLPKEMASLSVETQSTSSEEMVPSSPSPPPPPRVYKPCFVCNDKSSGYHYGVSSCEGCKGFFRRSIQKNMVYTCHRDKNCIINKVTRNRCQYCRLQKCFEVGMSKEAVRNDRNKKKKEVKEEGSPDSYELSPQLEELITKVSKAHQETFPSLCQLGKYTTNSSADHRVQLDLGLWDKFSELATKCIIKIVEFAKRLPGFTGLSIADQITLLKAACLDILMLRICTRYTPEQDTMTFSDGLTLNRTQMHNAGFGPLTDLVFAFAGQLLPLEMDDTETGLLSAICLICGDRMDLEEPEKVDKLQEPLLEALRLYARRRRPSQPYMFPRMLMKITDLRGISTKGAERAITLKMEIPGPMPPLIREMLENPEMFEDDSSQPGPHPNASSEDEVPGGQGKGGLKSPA
Description: Inverse agonist activity at GAL4 DBD-fused RARgamma LBD (unknown origin) expressed in human HG5LN cells after 18 hrs by luciferase reporter gene assay

The nature of data set [4]: physchem. The note with it: buffer, pH 6.5.
Data set [5] addresses T1, Nuclear receptor ROR-gamma. Briefly: Inverse agonist activity at RORgamma in human CD4+ T cells assessed as inhibition of IL-17A release after 4 days by HTRF assay. It is filed as cell-based, T-cell. (Time-resolved FRET reads energy transfer from a long-lived donor to a nearby acceptor.)
For data set [6], the target named is T3, Nuclear receptor ROR-alpha (Homo sapiens, UniProt P35398).
T3 sequence (P35398 whole entry): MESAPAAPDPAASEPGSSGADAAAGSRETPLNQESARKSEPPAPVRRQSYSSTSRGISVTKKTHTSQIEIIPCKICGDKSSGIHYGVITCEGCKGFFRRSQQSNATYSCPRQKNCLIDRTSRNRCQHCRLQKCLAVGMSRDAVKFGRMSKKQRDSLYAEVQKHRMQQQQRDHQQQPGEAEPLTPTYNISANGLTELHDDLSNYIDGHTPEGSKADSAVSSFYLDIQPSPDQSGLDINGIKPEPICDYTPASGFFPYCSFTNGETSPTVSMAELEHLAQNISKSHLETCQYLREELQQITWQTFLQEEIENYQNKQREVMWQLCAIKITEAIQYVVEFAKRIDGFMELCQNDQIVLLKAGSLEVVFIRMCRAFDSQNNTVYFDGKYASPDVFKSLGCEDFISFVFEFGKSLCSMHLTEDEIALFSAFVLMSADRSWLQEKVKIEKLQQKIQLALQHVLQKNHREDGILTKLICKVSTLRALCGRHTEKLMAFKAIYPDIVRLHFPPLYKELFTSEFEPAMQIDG
Description: Inverse agonist activity at GAL4 DBD-fused RORalpha LBD (unknown origin) expressed in HG5LN cells after 18 hrs by luciferase reporter gene assay

For data set [7] the following is noted: rat, microsomes.
Description: Stability in rat microsomes
Data set [8] is described as follows: in vitro. The note with it: human, plasma.
Description: Fraction unbound in human plasma at 5 uM after 4 hrs by equilibrium dialysis based LC-MS/MS analysis
The nature of data set [9]: in vitro. The note with it: human, neonatal keratinocytes.
Description: Photocytotoxicity against human neonatal keratinocytes assessed as decrease in cell viability by measuring ratio of IC50 in presence of UV to IC50 in absence of UV after 30 mins by neutral red dye based assay
Data set [10] in a line: in vitro. As to conditions: human, hepatocytes.

The term IC50 denotes the concentration needed to halve the response being measured. What is called logD is the decadic logarithm of the distribution of all forms, ionised or not, between an organic phase and buffer at a given pH. Low readings indicate lower lipophilicity, high ones higher lipophilicity. Take `Cc1cccc(C)c1Sc1nn(-c2ccc(C(=O)O)cc2)c2ccc(C(=O)N(C)C)cc12`: the Activity entry in [1] is reported as “Toxic”. For the same molecule, the IC50 was 0.37 µM in data set [2] and greater than 10 µM in [3]. The same molecule returned a logD in [4] of 1.6.

In the case of `CN(C)C(=O)c1ccc2c(c1)c(Sc1c(Cl)cccc1Cl)nn2-c1ccc(C(=O)O)cc1`, the Activity result in data set [1] is reported as “Toxic”. The IC50 in data set [2] is 0.59 µM; in data set [3], greater than 10 µM. This molecule also gave a logD in [4] of 1.6.

For the molecule `O=C(O)c1ccc(-n2nc(Sc3c(Cl)cccc3Cl)c3ccccc32)cc1`, the Activity result in data set [1] is given as “Toxic”. Moreover, the results for the IC50 in data set [2] and in [3] were 2.5 µM and 4.4 µM, respectively. The same molecule registered a logD in [4] of 2.9.

For `CN(C)C(=O)c1ccc2c(c1)c(Sc1ccc(Cl)cc1Cl)nn2-c1ccc(C(=O)O)cc1`, in [1], the Activity result is listed as “Toxic”. Moreover, the concentration for half-maximal inhibition (IC50) in data set [2] and in data set [3] was greater than 10 µM in each case. In addition, the logD in data set [4] was 2.2.

On to `CN(C)C(=O)c1ccc2c(c1)c(Sc1cccc(Cl)c1Cl)nn2-c1ccc(C(=O)O)cc1`, for which the Activity result in data set [1] is on record as “Toxic”. The IC50 in [2] was 5.9 µM; in data set [3], greater than 10 µM. Further, in data set [4], the logD is 2.1.

In the case of `CN(C)C(=O)c1ccc2c(c1)c(S(=O)(=O)c1c(Cl)cccc1Cl)nn2-c1ccc(C(=O)O)cc1`, the Activity result in data set [1] is reported as “Toxic”. For the same molecule, the half-maximal inhibitory concentration (IC50) in [2] and in [3] was greater than 10 µM each time. Besides, the logD in [4] was found to be 0.9.

For the molecule `CN(C)C(=O)c1ccc2c(c1)c(Sc1c(F)cccc1Cl)nn2-c1ccc(C(=O)O)cc1`, the Activity entry in [1] was “Toxic”. Besides, the IC50 in data set [2] was 5 µM; in data set [3], greater than 10 µM. The molecule further came in with a logD in data set [4] of 1.4.

Usually fraction unbound stands for free concentration divided by total concentration. By hepatocyte CLint is commonly meant the rate of metabolic loss divided by the concentration. Turning to `Cc1cccc(Cl)c1Oc1nn(-c2ccc(C(=O)O)cc2)c2ccc(C(=O)N(C)C)cc12`, the IC50 is 0.15 µM in data set [5], 0.12 µM in [2], greater than 10 µM in data set [3] and greater than 10 µM in data set [6]. Also, the Stability entry in data set [7] is reported as “Unstable”. Also, in data set [4], the logD was found to be 1.5. In data set [8], this molecule came in with a fraction unbound at 4 h, 5 µM of 0.024. In addition, in data set [9], the selectivity ratio at 0.5 h was found to be 36. The molecule further came in with a hepatocyte CLint at […], 1 µM in data set [10] of 54 µL/min/1e6 cells.

For the molecule `CN(C)C(=O)c1ccc2c(c1)c([S+]([O-])c1c(Cl)cccc1Cl)nn2-c1ccc(C(=O)O)cc1` (stereo not drawn), the Activity entry in [1] is “Toxic”. The IC50 in [2] and in data set [3] was greater than 10 µM in each case. This molecule also registered a logD in data set [4] of 0.4.

Regarding `O=C(O)c1ccc(-c2nn(C(=O)c3c(Cl)cccc3Cl)c3ccccc23)cc1`, in [1], the Activity result is recorded as “Toxic”. Moreover, the IC50 was determined as 0.06 µM in [2] and 1.3 µM in data set [3]. This molecule also displayed a logD in [4] of 2.4.

Turning to `O=C(O)c1ccc(-n2nc(Oc3c(Cl)cccc3Cl)c3c(F)cccc32)cc1`, the IC50 in data set [2] came to 0.26 µM; in data set [3], 0.8 µM. This molecule returned a log distribution coefficient (logD) in data set [4] of 2.8. In addition, in data set [9], the selectivity ratio at 0.5 h was greater than 90.

Take `O=C(O)c1ccc(-n2nc(Oc3c(Cl)cccc3Cl)c3ccccc32)cn1`: the IC50 in data set [2] and in data set [3] was greater than 10 µM throughout. Besides, the logD in [4] came out at 3.7. The selectivity ratio at 0.5 h in data set [9] turned out to be 30.
